Laboratory results from ChEMBL document CHEMBL1135274, “Spirocyclic nonpeptide glycoprotein IIb-IIIa antagonists. Part 3: synthesis and SAR of potent and specific 2,8-diazaspiro[4.5]decanes” (Bioorg Med Chem Lett, 2002).

What was measured:
Homo sapiens = species on record: Homo sapiens; assay: In vitro ability to inhibit aggregation of ADP stimulated human platelets using PRP assay.; format: functional
[1] = molecular target: Integrin alpha-IIb/beta-3 (Homo sapiens, UniProt P05106+P08514); assay: In vitro activity to block the binding of fibrinogen to purified human fibrinogen receptor.; format: protein-complex assay
Sequence of Integrin alpha-IIb/beta-3 (P05106 27-788 limits assumed): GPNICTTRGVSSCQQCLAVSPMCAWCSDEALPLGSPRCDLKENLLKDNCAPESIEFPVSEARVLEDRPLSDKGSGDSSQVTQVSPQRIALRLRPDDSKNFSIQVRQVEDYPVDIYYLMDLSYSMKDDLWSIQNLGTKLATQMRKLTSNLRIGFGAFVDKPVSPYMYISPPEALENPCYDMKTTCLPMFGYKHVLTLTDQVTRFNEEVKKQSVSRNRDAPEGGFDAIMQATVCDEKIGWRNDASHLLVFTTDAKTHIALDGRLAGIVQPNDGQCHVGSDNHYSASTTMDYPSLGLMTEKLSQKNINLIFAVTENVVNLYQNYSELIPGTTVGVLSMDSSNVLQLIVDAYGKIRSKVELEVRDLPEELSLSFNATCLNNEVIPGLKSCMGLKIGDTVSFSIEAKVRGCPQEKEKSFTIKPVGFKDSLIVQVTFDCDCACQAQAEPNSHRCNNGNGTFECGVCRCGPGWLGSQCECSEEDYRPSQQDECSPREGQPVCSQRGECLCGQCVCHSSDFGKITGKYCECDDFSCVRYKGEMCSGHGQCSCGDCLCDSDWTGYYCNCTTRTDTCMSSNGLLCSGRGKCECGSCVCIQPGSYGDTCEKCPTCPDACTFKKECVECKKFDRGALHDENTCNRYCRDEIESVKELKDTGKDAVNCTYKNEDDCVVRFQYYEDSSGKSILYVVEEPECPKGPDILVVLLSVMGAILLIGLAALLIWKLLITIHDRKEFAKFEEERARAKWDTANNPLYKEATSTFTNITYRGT
Sequence of Integrin alpha-IIb/beta-3 (P08514 32-887 limits assumed): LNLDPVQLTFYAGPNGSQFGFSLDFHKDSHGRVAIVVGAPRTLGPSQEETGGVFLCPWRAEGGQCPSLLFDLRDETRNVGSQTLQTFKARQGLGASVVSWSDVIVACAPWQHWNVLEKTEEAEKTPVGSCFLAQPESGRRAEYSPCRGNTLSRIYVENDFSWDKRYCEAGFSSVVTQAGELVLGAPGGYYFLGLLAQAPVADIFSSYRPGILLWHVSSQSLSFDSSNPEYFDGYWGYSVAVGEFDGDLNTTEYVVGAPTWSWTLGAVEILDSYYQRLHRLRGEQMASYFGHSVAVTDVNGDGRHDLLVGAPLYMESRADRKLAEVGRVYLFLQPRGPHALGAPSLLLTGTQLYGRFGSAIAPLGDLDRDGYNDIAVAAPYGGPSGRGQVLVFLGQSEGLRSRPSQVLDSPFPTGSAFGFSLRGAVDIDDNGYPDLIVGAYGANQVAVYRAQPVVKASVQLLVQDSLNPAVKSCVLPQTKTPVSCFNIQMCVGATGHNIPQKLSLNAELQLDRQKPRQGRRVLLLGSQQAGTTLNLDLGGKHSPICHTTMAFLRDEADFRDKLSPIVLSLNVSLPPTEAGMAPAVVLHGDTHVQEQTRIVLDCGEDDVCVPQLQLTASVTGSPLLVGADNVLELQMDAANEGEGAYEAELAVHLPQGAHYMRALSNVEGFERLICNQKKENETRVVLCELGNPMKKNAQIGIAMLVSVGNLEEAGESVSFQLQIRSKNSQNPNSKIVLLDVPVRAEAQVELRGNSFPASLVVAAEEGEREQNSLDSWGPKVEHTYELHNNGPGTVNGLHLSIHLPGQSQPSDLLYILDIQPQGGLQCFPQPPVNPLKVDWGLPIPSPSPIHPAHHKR
Sequence of Integrin alpha-IIb/beta-3 (P08514 891-1039 limits assumed): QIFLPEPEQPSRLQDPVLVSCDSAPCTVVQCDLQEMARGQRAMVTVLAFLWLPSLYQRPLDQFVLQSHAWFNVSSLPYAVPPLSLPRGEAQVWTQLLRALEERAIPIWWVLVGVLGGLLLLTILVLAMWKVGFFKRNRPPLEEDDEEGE

[2] = Oral bioavailability in rat (Sprague-Dawley) (dose 1 mg/kg p.o.); format: ADME, organism-based; details: in vivo
[3] = Plasma half life was reported after a intravenous dose of 1 mg/kg in Dawley rat; format: ADME, organism-based; set-up: dose 1 mg/kg, route intravenous; details: Sprague-Dawley

Compound | IC50 (Homo sapiens) [nM] | IC50 [1] [nM] | bioavailability [2] [%] | half-life [3] [min]
O=C(O)CCCCNC(=O)N1CCC2(CC1)CCN(c1ccncc1)C2 | 10600 | 11900 | – | –
O=C(O)CN1CCN(C(=O)N2CCC3(CCN(c4ccncc4)CC3)C2)CC1=O | 1180 | 25 | – | –
O=C(O)CCC(=O)N1CCN(C(=O)N2CCC3(CC2)CCN(c2ccncc2)C3)CC1 | 24100 | – | – | –
O=C(O)CC(=O)N1CCN(C(=O)N2CCC3(CC2)CCN(c2ccncc2)C3)CC1 | 680 | 136 | – | –
O=C(O)COc1cccc(C(=O)N2CCC3(CC2)CCN(c2ccncc2)C3)c1 | 18300 | 873 | – | –
O=C(N[C@@H](CCC(=O)N1CCC2(CC1)CCN(c1ccncc1)C2)C(=O)O)OCc1ccccc1 | 4100 | 25 | – | –
O=C(O)CCN1CCN(C(=O)N2CCC3(CC2)CCN(c2ccncc2)C3)CC1 | 3200 | 87 | – | –
O=C(O)CCN1CCC(C(=O)N2CCC3(CC2)CCN(c2ccncc2)C3)CC1 | 1000 | – | – | –
O=C(O)CCN1CCCN(C(=O)N2CCC3(CC2)CCN(c2ccncc2)C3)CC1 | 3700 | 254 | – | –
O=C(O)[C@H](CCC(=O)N1CCC2(CC1)CCN(c1ccncc1)C2)NS(=O)(=O)c1cnoc1 | 270 | 2 | 12 | 22.8
O=C(O)CC(=O)NC1CCN(C(=O)N2CCC3(CC2)CCN(c2ccncc2)C3)C1 (stereo unspecified) | 5900 | – | – | –
O=C(O)CC(=O)N1CCC(C(=O)N2CCC3(CCN(c4ccncc4)CC3)C2)CC1 | 1580 | – | – | –
O=C(O)CC(=O)N1CCCN(C(=O)N2CCC3(CC2)CCN(c2ccncc2)C3)CC1 | 700 | – | – | –
O=C(O)COCC1CCN(C(=O)N2CCC3(CC2)CCN(c2ccncc2)C3)CC1 | 2800 | – | – | –
O=C(O)CC(=O)N1CCC(C(=O)N2CCC3(CC2)CCN(c2ccncc2)C3)CC1 | 260 | 4 | 10 | 58.8
O=C(O)Cn1ccc2cc(C(=O)N3CCC4(CC3)CCN(c3ccncc3)C4)ccc21 | 950 | – | – | –
CN(CC(=O)O)C1CCN(C(=O)N2CCC3(CC2)CCN(c2ccncc2)C3)CC1 | 12400 | 1200 | – | –

The next lines start with the values.

IC50 (Homo sapiens) [nM] | IC50 [1] [nM] | bioavailability [2] [%] | half-life [3] [min] | Compound
74000 | > 50000 | – | – | O=C(O)CCCCCNC(=O)N1CCC2(CC1)CCN(c1ccncc1)C2
4000 | – | – | – | CCCCOC(=O)N[C@@H](CCC(=O)N1CCC2(CC1)CCN(c1ccncc1)C2)C(=O)O
3800 | – | – | – | O=C(O)COC1CCN(C(=O)N2CCC3(CC2)CCN(c2ccncc2)C3)CC1
80000 | > 50000 | – | – | O=C(O)CCCNC(=O)N1CCC2(CC1)CCN(c1ccncc1)C2
11300 | – | – | – | O=C(O)COc1ccc(C(=O)N2CCC3(CC2)CCN(c2ccncc2)C3)cc1
1200 | 115 | – | – | O=C(O)CC1CCN(C(=O)N2CCC3(CC2)CCN(c2ccncc2)C3)CC1
1300 | 43 | – | – | O=C(O)CCCCCC(=O)N1CCC2(CCN(c3ccncc3)CC2)C1
1040 | 153 | – | – | O=C(O)COC1CCN(C(=O)N2CCC3(CCN(c4ccncc4)CC3)C2)CC1
80000 | > 50000 | – | – | O=C(O)CCCCC(=O)N1CCC2(CCN(c3ccncc3)CC2)C1
8900 | – | – | – | O=C(O)CN1CCN(C(=O)N2CCC3(CC2)CCN(c2ccncc2)C3)CC1
34600 | – | – | – | O=C(O)CCNC(=O)N1CCC2(CC1)CCN(c1ccncc1)C2
9500 | 320 | – | – | O=C(O)CN1CCC(C(=O)N2CCC3(CC2)CCN(c2ccncc2)C3)CC1
23300 | 1800 | – | – | O=C(O)CCn1ccc2cc(C(=O)N3CCC4(CC3)CCN(c3ccncc3)C4)ccc21
18800 | – | – | – | O=C(O)CCCCCCC(=O)N1CCC2(CCN(c3ccncc3)CC2)C1
1100 | 90 | – | – | O=C(O)CS(=O)(=O)N1CCC(C(=O)N2CCC3(CC2)CCN(c2ccncc2)C3)CC1
8340 | 238 | – | – | O=C(O)CCN1CCN(C(=O)N2CCC3(CCN(c4ccncc4)CC3)C2)CC1=O
3300 | 225 | – | – | CC(CC(=O)O)N1CCC(C(=O)N2CCC3(CC2)CCN(c2ccncc2)C3)CC1 (stereo unspecified)
55000 | 4200 | – | – | O=C(O)C1CCN(C(=O)N2CCC3(CC2)CCN(c2ccncc2)C3)CC1
